In PubChem BioAssay (NCI):
Values joined by “and” are separate entries in the source; they are usually repeats but may differ in a detail not shown here. Identical values can stand only once.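 Cultured in 96-well plates, cells were exposed to test compound for 48 hours across five concentrations. GI50: concentration for 50% inhibition of growth. Definition used: TGI = concentration required for complete inhibition of growth.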

Tests used:
Test in all cases: NCI anticancer screen, dose series, 48 h
EKVX NSCLC = system: EKVX NSCLC
HCT-116 colon = system: HCT-116 colon
IGROV1 ovarian = system: IGROV1 ovarian
K-562 leukemia = system: K-562 leukemia
M14 melanoma = system: M14 melanoma
MALME-3M melanoma = system: MALME-3M melanoma
RPMI-8226 leukemia = system: RPMI-8226 leukemia
SK-OV-3 ovarian = system: SK-OV-3 ovarian
NCI/ADR-RES ovarian = system: NCI/ADR-RES ovarian
MCF7 breast = system: MCF7 breast

Compound | TGI (EKVX NSCLC) | TGI (HCT-116 colon) | TGI (IGROV1 ovarian) | TGI (K-562 leukemia) | TGI (M14 melanoma) | TGI (MALME-3M melanoma) | TGI (RPMI-8226 leukemia) | TGI (SK-OV-3 ovarian) | GI50 (HCT-116 colon) | GI50 (RPMI-8226 leukemia) | TGI (NCI/ADR-RES ovarian) | GI50 (EKVX NSCLC) | GI50 (IGROV1 ovarian) | GI50 (K-562 leukemia) | GI50 (M14 melanoma) | GI50 (MCF7 breast) | TGI (MCF7 breast) | GI50 (NCI/ADR-RES ovarian) | GI50 (SK-OV-3 ovarian) | GI50 (MALME-3M melanoma)
Nc1ccc2n[se]nc2c1 | > 100 µM | > 100 µM | > 100 µM | > 100 µM | > 100 µM | > 100 µM | > 100 µM | > 100 µM | – | – | – | – | – | – | – | – | – | – | – | –
O=S1(=O)N2CN3CN(C2)CN1C3 | 823 µM | 44.4 µM and 76.6 µM | 712 µM | > 31.6 µM and 169 µM | 355 µM | 324 µM | 56.6 µM and 124 µM | 868 µM | 26.6 µM | 33.7 µM | – | – | – | – | – | – | – | – | – | –
CN(C)CCNC(=O)c1cccc2c1nc(-c1ccc(F)cc1)c1ccccc12 | 21.7 µM | 13.4 µM | 16.8 µM | 11.7 µM | 18.7 µM | – | – | 21.1 µM | – | – | – | – | – | – | – | – | – | – | – | –
Cc1ccccc1N=Nc1c(O)ccc2ccccc12 | > 100 µM | > 100 µM | > 100 µM | > 100 µM | > 100 µM | > 100 µM | > 100 µM | > 100 µM | – | – | > 100 µM | – | – | – | – | – | – | – | – | –
O=C1c2ccccc2C(=O)c2cc3c(cc21)CS(=O)C3 | > 100 µM | – | > 100 µM | > 100 µM | > 100 µM | > 100 µM | > 100 µM | > 100 µM | – | – | – | – | – | – | – | – | – | – | – | –
Cc1nc(N)nc(N)c1CCCCc1ccc(N)cc1 | 27.3 µM | 13.4 µM | 21.2 µM | 16.4 µM | 18.4 µM | 18.2 µM | 26.5 µM | 16.6 µM | – | – | – | – | – | – | – | – | – | – | – | –
O=C(c1ccc(O)cc1O)C1C(c2ccc(O)cc2)OC(c2ccc(O)cc2)C1C(=O)c1ccc(O)cc1O (stereo unspecified) | 60 µM | – | – | – | 34.5 µM | 31.2 µM | – | – | – | – | – | – | – | – | – | – | – | – | – | –
CCOC(=O)c1c(-c2ccccc2)[n+](=O)c2cc(Cl)c(Cl)cc2n1[O-] | 34.5 µM | 11.1 µM | > 100 µM | > 100 µM | 27.9 µM | – | 1.51 µM | 33.6 µM | 2.57 µM | 0.285 µM | 44.7 µM | 17.6 µM | 1.63 µM | 3.29 µM | 13.3 µM | 2.03 µM | 20.9 µM | 18 µM | 18.5 µM | –
C=C1C(=O)O[C@H]2[C@H]1CC/C(COC(=O)c1cc(OC)c(OC)c(OC)c1)=C\CC[C@@]1(C)O[C@@H]21 | 4.5 µM | 1.48 µM | 2.05 µM | 11.5 µM | 3.05 µM | 3.77 µM | 2.34 µM | 16.8 µM | 0.409 µM | 0.422 µM | 13.8 µM | 1.78 µM | 0.477 µM | 0.388 µM | 1.27 µM | – | – | 2.87 µM | 5.22 µM | 1.77 µM
CC1(C)CCC(Sc2ccccc2)O1 (stereo unspecified) | > 100 µM | > 100 µM | > 100 µM | > 100 µM | > 100 µM | – | > 100 µM | > 100 µM | – | – | – | – | – | – | – | – | – | – | – | –
CCCNC(=O)Nc1c([N+](=O)[O-])cc(C(F)(F)F)cc1[N+](=O)[O-] | > 100 µM | > 100 µM | > 100 µM | > 100 µM | > 100 µM | – | > 100 µM | > 100 µM | – | – | – | – | – | – | – | – | – | – | – | –
CC(=O)Nc1ccc(C(=O)CCl)cc1 | – | 4.95 µM | 31 µM | 5.88 µM | 7.38 µM | – | 10 µM | 28.3 µM | 2.2 µM | 2.95 µM | 43.5 µM | – | 14.8 µM | 2.48 µM | 2.56 µM | 1.66 µM | 6.54 µM | 14.7 µM | 15.1 µM | –
COC(=O)C(=O)Cc1nc2ccccc2s1 | > 100 µM | > 100 µM | > 100 µM | > 100 µM | > 100 µM | > 100 µM | – | > 100 µM | – | – | – | – | – | – | – | – | – | – | – | –
CCOC(=O)C(C)(NC(=O)c1ccc(NCc2ccc3nc(NC(=O)c4ccccc4)nc(NC(=O)c4ccccc4)c3c2)cc1)C(=O)OCC | 39.5 µM | 24 µM | 63.3 µM | – | 44.3 µM | 38 µM | > 100 µM | 27.4 µM | – | – | – | – | – | – | – | – | – | – | – | –
O=C(O/N=C1\CCCC\C1=C/c1ccccc1)c1ccc([N+](=O)[O-])cc1 | > 100 µM | > 100 µM | – | > 100 µM | > 100 µM | > 100 µM | > 100 µM | > 100 µM | – | – | – | – | – | – | – | – | – | – | – | –
C[C@H]1CC[P+](Cc2ccccc2)(c2ccccc2)C1 (stereo partly specified) | > 100 µM | > 100 µM | > 100 µM | > 100 µM | > 100 µM | > 100 µM | > 100 µM | > 100 µM | – | – | – | – | – | – | – | – | – | – | – | –
COc1cc(-c2cc(/C=C/C(=O)c3ccc(F)c(F)c3)[nH]n2)cc(OC)c1OC | – | 13.9 µM | 87 µM | 16.5 µM | 11.9 µM | 9.4 µM | 6 µM | 58.6 µM | 4 µM | 1.76 µM | 50.5 µM | – | 3.62 µM | 3.31 µM | 2.7 µM | 3.2 µM | 12.3 µM | 3.46 µM | 3.53 µM | 2.96 µM
COC1=C(N)C(=O)c2nc(-c3nc(C(=O)O)c(C)c(-c4ccc(OC)c(OC)c4O)c3N)ccc2C1=O | 0.0349 µM and 0.0896 µM | – | 0.0196 µM and 0.125 µM and 0.0589 µM | 0.277 µM and 0.102 µM and 0.0281 µM | – | – | 0.00647 µM and 0.0298 µM and 0.0225 µM | 0.0272 µM and 0.0174 µM | 0.0139 µM and 0.00357 µM | 0.00215 µM and 0.00924 µM and < 0.01 µM | 0.0151 µM and 0.094 µM and 0.0169 µM | 0.00938 µM and 0.0215 µM | 0.00237 µM and 0.0223 µM and 0.0183 µM | 0.0237 µM and 0.0112 µM and < 0.01 µM | – | – | – | 0.00121 µM and 0.00809 µM | – | –
c1cc(N[C@@H]2CCNC2)nc(-c2cnc3ccc(-c4cn[nH]c4)cn23)c1 | – | > 100 µM | 17.6 µM | > 55.6 µM | 44.9 µM | 26.9 µM | 43.9 µM | 68.6 µM | 3.43 µM | 11 µM | > 100 µM | – | 5.46 µM | 3.63 µM | 13.7 µM | 3.31 µM | 20.4 µM | > 100 µM | 7.8 µM | 6.98 µM
CC(=O)C1CCN(c2ccccc2)C1 (stereo unspecified) | > 100 µM | > 100 µM | > 100 µM | > 100 µM | > 100 µM | – | – | > 100 µM | – | – | – | – | – | – | – | – | – | – | – | –
NC1NC=NC2C1N=CN2C1OC(CO)C2[O][Sn][O]C21 (stereo unspecified) | > 100 µM | > 100 µM | > 100 µM | > 100 µM | > 100 µM | > 100 µM | > 100 µM | > 100 µM | > 100 µM | > 100 µM | – | > 100 µM | > 100 µM | > 100 µM | > 100 µM | – | – | – | > 100 µM | > 100 µM
